What was measured:
[1] = biological target: T1, human integrin αvβ1 (Homo sapiens, UniProt P05556+P06756); assay: Integrin ligand-binding assay, αvβ1 (fibronectin ligand)
T1 construct: purchased ACROBiosystems or R&D Systems IT1-H52E1 or 6579-AVB
Procedure: (§1) Integrin ligand-binding assays were performed similar to that previously described.
(§2) Microplates were coated with recombinant human integrins dissolved in PBS (2 µg/ml, overnight at room temperature). Following removal of the coating solution, plates were washed with PBS. Plates were blocked with 200 µL/well of blocking buffer (2% bovine serum albumin [BSA] in PBS) at 37 °C for 1 h. […] Plates were incubated for 2 h at 25 °C, washed, and incubated for 1 h with biotin-labeled anti-fibronectin or anti-LAP antibodies (for αvβ1 or αvβ6/αvβ8, respectively).

[2] = biological target: T2, human integrin αvβ6 (Homo sapiens, UniProt P06756+P18564); assay: Integrin ligand-binding assay, αvβ6 (LAP ligand)
T2 construct: purchased ACROBiosystems or R&D Systems IT6-H52E1 or 3817-AV
Procedure: as §1, §2

[3] = system: αvβ1-induced TGF-β activation; assay: TGF-β co-culture assay, CHO-αv cells with MLEC luciferase reporter cells; format: cell-based, human; settings: integrin αvβ1
Procedure: SW-β6 cells and MLECs or CHO-αv cells and MLECs were cultured in 96-well plates with test compounds or antibodies for 20 h at 37 °C in a 5% CO2 incubator. […] Measurement of MLEC luciferase production resulting from αvβ6- or αvβ1-mediated TGF-β activation was performed using the Bright-Glo Luciferase Assay System (Promega; Madison, WI, USA) according to manufacturer’s instruction. Luminescence was quantified by a Tecan Spark 10M plate reader. IC50 curves were generated using Dotmatics software suite with five-parameter logistic curve fitting. Geometric mean IC50 was calculated for each compound from multiple independent analyses.

[4] = system: normal human bronchial epithelial cell adhesion to LAP (αvβ6 integrin-mediated); assay: Primary cell LAP adhesion assay (cell impedance), NHBE; format: cell-based; settings: normal human bronchial epithelial cells, read-out: IC50 for inhibition of adhesion to LAP
Procedure: (§3) Adhesion of primary human lung cells to LAP was quantified using the xCELLigence RTCA MP instrument (ACEA Biosciences; San Diego, CA, USA) via cell impedance measurements similar to that previously described.
(§4) Adhesion assays were performed using the xCELLigence RTCA MP instrument (ACEA Biosciences; San Diego, CA, USA) on 96-well PET plates (ACEA Biosciences; 300600910) via a cell impedance measurement similar to one previously described (E6). Plates were coated with LAP (Sino Biological; 10804-H08H1) overnight at 4 °C and blocked with BSA for 2 h at 37 °C. NHLF (40,000 cells/well), dHLF (40,000 cells/well), or NHBE (20,000 cells per well) in FBS-free media were combined with small-molecule integrin inhibitors or antibodies in the plates and incubated at 37 °C with 5% CO2. […] Anti-αv antibody, 17E6, and anti-β1 antibody, P5D2, were tested at a single concentration (10 μg/ml). Cell impedance (cell index) was measured at baseline and every 3 min for up to 24 h using xCELLigence RTCA 2.1.0 Software (ACEA Biosciences). […] Geometric mean IC50 was calculated for each compound following repeat analyses of multiple donor cells.

[5] = system: IPF lung fibroblast adhesion to LAP; assay: Primary cell LAP adhesion assay (cell impedance), IPF HLF; format: cell-based; settings: Homo sapiens, HLFs isolated from fibrotic (IPF) lung tissue, read-out: IC50 for blocking adhesion to LAP
Procedure: as §3, §4

[6] = system: other αv integrins; assay: Human integrin ligand-binding assays, selectivity over the panel
Procedure: as §1
Microplates were coated with recombinant human integrins dissolved in PBS (2 µg/ml, overnight at room temperature). Following removal of the coating solution, plates were washed with PBS. Plates were blocked with 200 µL/well of blocking buffer (2% bovine serum albumin [BSA] in PBS) at 37 °C for 1 h. Serial dilutions of test compounds and 2 µg/ml of recombinant ligands were added: fibronectin (R&D Systems #1918-Fn) for integrin αvβ1, LAP (Sino Biological #10804-H08H1; Beijing, China) for integrins αvβ6 and αvβ8, or biotin-tagged vitronectin (Molecular Innovations, Inc. #HVNUBIO) for integrins αvβ3 and αvβ5 in binding/wash buffer (50 mM Tris-HCl, pH 7.5; 0.1% BSA, NaCl 150 mM; 0.02% Tween-20; 1 mM CaCl2; 1 mM MnCl2; 1 mM MgCl2). Plates were incubated for 2 h at 25 °C, washed, and incubated for 1 h with biotin-labeled anti-fibronectin or anti-LAP antibodies (for αvβ1 or αvβ6/αvβ8, respectively). After washing, bound antibody was incubated with peroxidase-conjugated streptavidin (Thermo Fisher #21134; 1:2000 dilution) for 30 minutes (min) at room temperature. Following an additional washing step, 100 μL TMB substrate (BD Biosciences #555214; San Jose, CA, USA) was added and integrin binding was quantified by measuring absorbance at 450 nm by a Tecan Spark 10M plate reader (Tecan; Männedorf, Switzerland).

T2 sequence (P06756 31-992 limits assumed): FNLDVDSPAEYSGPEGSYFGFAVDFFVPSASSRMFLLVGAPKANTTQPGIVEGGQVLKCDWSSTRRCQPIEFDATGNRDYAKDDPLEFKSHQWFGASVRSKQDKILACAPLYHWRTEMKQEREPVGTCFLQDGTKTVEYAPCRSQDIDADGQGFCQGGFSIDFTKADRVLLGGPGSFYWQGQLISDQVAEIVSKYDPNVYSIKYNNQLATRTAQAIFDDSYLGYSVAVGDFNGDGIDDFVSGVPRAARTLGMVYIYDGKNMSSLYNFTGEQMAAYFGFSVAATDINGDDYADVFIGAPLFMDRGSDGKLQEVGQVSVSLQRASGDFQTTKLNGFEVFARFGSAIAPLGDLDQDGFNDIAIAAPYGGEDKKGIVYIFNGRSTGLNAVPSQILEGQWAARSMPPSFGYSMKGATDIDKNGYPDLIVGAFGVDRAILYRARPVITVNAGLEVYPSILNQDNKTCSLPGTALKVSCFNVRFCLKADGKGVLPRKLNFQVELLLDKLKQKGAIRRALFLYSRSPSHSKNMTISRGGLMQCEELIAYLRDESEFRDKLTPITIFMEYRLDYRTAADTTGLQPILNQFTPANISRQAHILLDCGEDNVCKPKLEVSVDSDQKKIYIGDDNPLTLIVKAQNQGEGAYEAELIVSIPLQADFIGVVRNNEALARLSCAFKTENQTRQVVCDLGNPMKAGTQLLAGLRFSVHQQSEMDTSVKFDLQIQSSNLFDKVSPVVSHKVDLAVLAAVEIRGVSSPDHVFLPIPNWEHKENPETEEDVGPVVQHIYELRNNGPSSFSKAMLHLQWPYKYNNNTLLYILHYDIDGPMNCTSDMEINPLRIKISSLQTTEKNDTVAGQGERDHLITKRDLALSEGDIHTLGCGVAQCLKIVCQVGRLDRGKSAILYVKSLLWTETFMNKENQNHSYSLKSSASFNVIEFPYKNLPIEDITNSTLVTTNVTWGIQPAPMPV
T2 sequence (P18564 22-707 limits assumed): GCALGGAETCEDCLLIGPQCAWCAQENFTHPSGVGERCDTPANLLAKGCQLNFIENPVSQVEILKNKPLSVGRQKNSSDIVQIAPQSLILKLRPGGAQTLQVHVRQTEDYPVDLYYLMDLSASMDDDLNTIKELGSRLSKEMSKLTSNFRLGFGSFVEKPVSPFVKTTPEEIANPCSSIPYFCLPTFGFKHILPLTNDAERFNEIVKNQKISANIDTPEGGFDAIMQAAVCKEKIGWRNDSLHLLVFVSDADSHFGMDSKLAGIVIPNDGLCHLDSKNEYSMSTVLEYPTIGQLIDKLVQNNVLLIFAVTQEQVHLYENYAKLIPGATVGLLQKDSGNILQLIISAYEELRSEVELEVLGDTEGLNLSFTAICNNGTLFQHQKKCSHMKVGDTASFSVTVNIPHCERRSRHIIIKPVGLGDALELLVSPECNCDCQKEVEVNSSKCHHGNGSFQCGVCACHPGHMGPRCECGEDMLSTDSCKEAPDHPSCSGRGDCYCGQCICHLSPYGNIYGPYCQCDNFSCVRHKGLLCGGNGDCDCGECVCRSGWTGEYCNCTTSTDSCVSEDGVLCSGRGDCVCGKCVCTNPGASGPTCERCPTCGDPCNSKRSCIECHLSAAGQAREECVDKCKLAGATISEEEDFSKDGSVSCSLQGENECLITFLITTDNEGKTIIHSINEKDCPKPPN
T1 sequence (P06756 31-992 limits assumed): as the sequence (P06756 31-992 limits assumed) above
T1 sequence (P05556 21-728 limits assumed): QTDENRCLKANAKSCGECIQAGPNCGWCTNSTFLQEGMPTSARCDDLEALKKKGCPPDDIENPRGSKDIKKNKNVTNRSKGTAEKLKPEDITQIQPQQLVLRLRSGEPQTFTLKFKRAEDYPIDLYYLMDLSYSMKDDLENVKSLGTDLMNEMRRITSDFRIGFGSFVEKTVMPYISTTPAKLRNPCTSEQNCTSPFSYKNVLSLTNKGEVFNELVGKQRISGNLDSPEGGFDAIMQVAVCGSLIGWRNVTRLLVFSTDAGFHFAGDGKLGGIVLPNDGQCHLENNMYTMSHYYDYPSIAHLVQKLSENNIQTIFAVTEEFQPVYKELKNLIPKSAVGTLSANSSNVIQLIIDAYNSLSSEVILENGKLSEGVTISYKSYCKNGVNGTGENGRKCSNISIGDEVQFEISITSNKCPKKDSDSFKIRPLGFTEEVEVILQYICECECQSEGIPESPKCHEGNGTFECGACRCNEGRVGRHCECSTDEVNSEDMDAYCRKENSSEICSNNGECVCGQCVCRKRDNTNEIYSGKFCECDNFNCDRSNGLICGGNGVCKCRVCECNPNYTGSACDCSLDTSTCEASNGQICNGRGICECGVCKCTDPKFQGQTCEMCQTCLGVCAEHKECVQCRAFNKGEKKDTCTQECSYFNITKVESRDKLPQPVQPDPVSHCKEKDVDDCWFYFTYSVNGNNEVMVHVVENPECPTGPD

COCCN(CCCCc1ccc2c(n1)NCCC2)CC[C@H](Nc1ncnc2ccccc12)C(=O)O [PLN-74809]
IC50 [1]: 0.0034 µM | Fold selectivity (vs αvβ6) ([1]; ligand binding): 0.6× | IC50 [2]: 0.0057 µM | Fold selectivity (vs αvβ6) ([2]; ligand binding): 1× | Fold selectivity (vs αvβ6) ([3]; TGF-β activation): 0.6× | IC50 [3]: 0.0192 µM | IC50 [4]: 0.0393 µM | IC50 [5]: 0.0235 µM | selectivity over other αv integrins [6]: ≥ 445 fold

— paper PMC8524858, “Dual inhibition of αvβ6 and αvβ1 reduces fibrogenesis in lung tissue explants from patients with IPF” (Respiratory Research, 2021)
